We go through four molecules from patent publication US10285985B2, “Pharmaceutical composition for treatment or prevention of neurodegenerative diseases” (NATIONAL UNIVERSITY CORPORATION OKAYAMA UNIVERSITY, priority 2015, dated 2019).

Values joined by “and” are separate entries in the source; they are usually repeats but may differ in a detail not shown here. Identical values can stand only once. Like-named read-outs stand apart in the source and are kept apart here.

The test system of series [1] is Parkinson's disease model rats. Put plainly: Apomorphine-induced rotation in Parkinson's disease model rats (6-OHDA). It is filed as in vivo, SD rat. To be noted: individual rats, Day 12, 0.015% w/w in feed, apomorphine 1 mg/kg i.p., 3 minutes. The procedure: A 8-week old male SD rat under isoflurane anesthesia was skin-incised on the head and then a connective tissue was dissected and removed. Then, the tissue was fixed on a brain stereotactic fixture, bregma and lambda coordinates were measured, a microinjection cannula was inserted at four points of administration coordinates AP (+1.3, +0.4, −0.4, −1.3 mm) and DV (−5.0 mm) at the depth of 5.0 mm from the brain surface, and 2 μL of a 3.5 mg/mL solution of 6-OHDA (6-hydroxydopamine) in a saline with 0.02% ascorbic acid as a solvent was infused at a rate of 1 μL/min. Similar surgical procedure was conducted for a sham group and saline with ascorbic acid alone was infused. Five minutes after infusion, the glass pipette was kept to be inserted for diffusing the solution. […] A rat with Parkinson's disease rotates to the left after apomorphine administration. An individual which rotated seven or more times in one minute after the initiation of the rotation was used as a Parkinson's disease model.
The rats were allowed to freely access to MF feed containing a 0.015% w/w RXR partial agonist. After 6 and 12 days, to the animal was intraperitoneally administered a 1 mg/mL solution of apomorphine in saline at 1 mg/kg, and the rotatory movement number for 3 minutes immediately after the administration was recorded.

Series [2] can be described thus: Brain-migration ability: plasma and cerebral concentration by HPLC. It is filed as in vivo, male ICR mice. To be noted: for concentration at 1 h: mouse, one hour after 30 mg/kg single-dose administration, male ICR mice, ave ± SEM. On the procedure:
A compound was administered at a dose of 30 mg/kg mouse body weight. A compound to be administered was prepared by dissolving it in a 1% final concentration of ethanol and suspending the solution in a 0.5% carboxymethyl cellulose (CMC) solution. Animals subjected to administration were male ICR mice (6 week old), and they were fasted from 17 o'clock the day before.
The collected blood was put in a heparinized tube, mixed with inversion and then centrifuged (600 g) for 5 minutes to obtain plasma. To 100 μL of the plasma were added 100 μL of an ammonium acetate buffer solution and 1 mL of ethyl acetate, and the mixture was stirred by a vortex mixer for 30 seconds and then left at room temperature for 10 minutes. Then, the mixture was centrifuged 30 seconds and 800 μL of the supernatant was concentrated by a centrifugal evaporator. To the concentrate was added 100 μL of an HPLC eluent to prepare an HPLC sample.
Under ether anesthesia, the brain was removed from a mouse after administrating a drug, and about 100 mg of the brain was weighed into a 2 mL Eppendorf tube. After adding 1000 μL of methanol per 100 mg of the brain, the mixture was homogenized. After the homogenization, the homogenate was centrifuged at 10,000 g at 10 to 15° C. for 10 minutes. Then, in a separate 1.5 mL Eppendorf tube, 700 μL of the supernatant […] was dispensed and concentrated to dryness by a centrifugal evaporator. To the concentrate was added 70 μL of the HPLC eluent, to give a solution (10× concentrate).
A 30 μM solution of the drug in methanol was prepared and diluted with the HPLC eluent (5 mM AcONH4, pH5, MeOH) to 10, 3, 1 and 0.3 μM. Using these, a calibration curve was formed. The plasma and the […] samples were subjected to measurement and a measured value was converted to a concentration.

For series [3] the following is noted: mice, oral 30 mg/kg/day for one week; cited from earlier work.
Series [4] has as its system multiple sclerosis model mice (EAE mice). The series is described as follows: Multiple sclerosis model mice (EAE mice), clinical score. In kind it is in vivo, C57BL6/J mice. To be noted: 0.015 w/w % in feed, vs vehicle group, FIG. 8.
Series [5] has as its system senescence-accelerated mouse (SAMP8). The series is described as follows: Blood data and organ weight in senescence-accelerated mouse (SAMP8) after 9 weeks of drug feed. To be noted: drug feed for 9 weeks, FIG. 7B, C. It is filed as in vivo. On the procedure:
After MRI imaging, the mice used in the above test were subjected to blood collection and then dissected, and blood data and the weight of each organ were recorded. Autopsy was conducted for the mice fed with MF feed containing a drug for 9 weeks. The animals were not fasted the day before the autopsy.

For series [6] the test system is unchanged. The series is described as follows: Y-maze test in senescence-accelerated mouse (SAMP8). In kind it is in vivo. To be noted: SAMP8 mice, 0.015% in feed; FIG. 5A.
Procedure: In this test, the mice used in the step-through test were used as they were.
After the step-through test, a Y-maze for a mouse (arm length: 40 cm) was used and mice were allowed to freely move for 8 minutes. In a Y-shaped system, a near-side arm, a left-back arm and a right-back arm are A, B, and C, respectively, and the number of entry into each arm was recorded (here, “entry” is defined that both hind paws of a mouse enter an arm, and entry of forepaws only is defined as “not enter”). This is called as a Y-maze.

On to `CN1CCc2cccc3c2[C@H]1Cc1ccc(O)c(O)c1-3` [Apomorphine, apomorphine], for which, in series [1], the “rotatory movement number, Left” value was 11 and 19 and 9 and 4 and 16; the “rotatory movement number, Right” value was 0.

Take `Cc1cc2c(cc1-n1nnc3cc(C(=O)O)ccc31)C(C)(C)CCC2(C)C` [CBt-PMN]: in series [2] (30 mg/kg, mice, one hour), the “migration to the brain compared with bexarotene” value was “migrates more smoothly to the brain than bexarotene”. Also, the concentration at 1 h was 11.4 ± 3.7 µM in series [2] (brain, read-out: Brain concentration) and 15.8 ± 6 µM in series [2] (plasma, read-out: Plasma concentration).

On to `CCN(c1ccc(OCC(C)C)c(C(C)C)c1)c1ccc(C(=O)O)cn1` [NEt-4IB], for which, in series [1] (listed as NEt-41B), the “rotatory movement number, Left” value is 53 and 18 and 6 and 0 and 32; the “rotatory movement number, Right” value is 0 (4×) and 75. In series [3], the “liver weight vs vehicle group” value is “not a difference”, the “tendency to weight gain (body weight change over a week)” value is on record as “not observed” and the “triglyceride level vs vehicle group” value is “not a difference”.

Take `C=C(c1ccc(C(=O)O)cc1)c1cc2c(cc1C)C(C)(C)CCC2(C)C` [bexarotene]: the “clinical score / amelioration of pathological model” value in series [4] is recorded as “did not ameliorate”. In addition, in series [5] (SAMP8 mice), the blood triglyceride entry is on record as “increase” and the “enlargement of the liver” value is listed as “observed”. In addition, in series [5] (SAMR1 mice), the blood triglyceride entry was “increase” and the “enlargement of the liver” value was “observed”. Besides, the “effect on SAMP8 hyperactivity (number of entry in the Y-maze arm)” value in series [6] is on record as “no effects”.
